Source: patent publication US6255497A, “Method for the inhibition of ALDH-I useful in the treatment of alcohol dependence or alcohol abuse” (priority 1998, dated 2001)
Converted amounts (≈) assume the structure as drawn. Read-outs that look alike come from different tables or passages of the source. Each block holds one molecule with its values, some of them ahead of it.

Tests used:
ALDH-II [1] = molecular target: T1, ALDH-II (Homo sapiens, UniProt P00352); assay: ALDH-II inhibition by structurally related compounds, acetaldehyde as substrate; type: biochemical; set-up: A liver sample (50 g wet weight) with the usual Caucasian ALDH phenotype (both ALDH-I and ALDH-II present); from tissue; host or cells: human liver (autopsy), purified by CM-52, AMP-agarose and DEAE HPLC
T1 sequence (P00352 1-501): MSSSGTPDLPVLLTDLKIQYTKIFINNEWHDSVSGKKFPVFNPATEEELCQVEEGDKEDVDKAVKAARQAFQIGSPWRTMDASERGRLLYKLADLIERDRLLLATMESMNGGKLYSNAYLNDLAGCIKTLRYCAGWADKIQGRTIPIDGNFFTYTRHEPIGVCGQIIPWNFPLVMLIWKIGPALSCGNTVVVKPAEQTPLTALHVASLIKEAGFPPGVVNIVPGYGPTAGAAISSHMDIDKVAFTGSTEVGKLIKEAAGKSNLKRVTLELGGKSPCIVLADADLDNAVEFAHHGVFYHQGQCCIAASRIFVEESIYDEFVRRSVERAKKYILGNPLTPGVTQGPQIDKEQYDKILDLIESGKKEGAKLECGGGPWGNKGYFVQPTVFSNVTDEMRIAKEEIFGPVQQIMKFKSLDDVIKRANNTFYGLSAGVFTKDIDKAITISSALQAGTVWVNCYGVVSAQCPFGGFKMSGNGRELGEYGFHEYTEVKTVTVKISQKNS
Procedure: (§1) *ALDH activities were assayed at 25° C. in 0.1 M sodium
(§2) pyrophosphate buffer pH 9.5 containins 0.15 M KCl, 1 mM NAD^+, various
(§3) concentrations of inhibitors and 5 and 200 μM acetaldehyde for ALDH-I
(§4) and ALDH-II, respectively.
(§5) For the study of the inhibition of ALDH-I by structurally related compounds to generate the data shown in Tables IV and V, each individual compound was dissolved at different concentrations in methanol and was added to the assay medium as 10 μL aliquots. For controls, 10 […] of methanol was added to the assay medium. In a standard ALDH-I assay, the assay medium contains 0.1 M sodium pyrophosphate pH 9.5, 0.15 M KCl, 1 mM NAD^+, 1% methanol, 5 μM acetaldehyde, 5-10 nM ALDH-I and various concentrations of inhibitor. The enzyme reaction rates were measured by monitoring the production of NADH at 340 nm (ε=6.22 mM^-1 cm^-1) with a Varian Cary 219 spectrophotometer thermostated at 25° C. (Fong et al., 1989, supra). The inhibition of ALDH-I by the inhibitors was calculated as: [formula]
(§6) where Vo is the enzyme reaction rate measured in the absence of inhibitor, and where Vi is the enzyme reaction rate measured in the presence of inhibitor. […] IC50 values are related to the underlying Ki values.

ALDH-I [2] = molecular target: T2, ALDH-I (Homo sapiens, UniProt P05091); assay: ALDH-I inhibition by structurally related compounds, acetaldehyde as substrate; type: biochemical; set-up: A liver sample (50 g wet weight) with the usual Caucasian ALDH phenotype (both ALDH-I and ALDH-II present); from tissue; host or cells: human liver (autopsy), purified by CM-52, AMP-agarose and DEAE HPLC
T2 sequence (P05091 18-517): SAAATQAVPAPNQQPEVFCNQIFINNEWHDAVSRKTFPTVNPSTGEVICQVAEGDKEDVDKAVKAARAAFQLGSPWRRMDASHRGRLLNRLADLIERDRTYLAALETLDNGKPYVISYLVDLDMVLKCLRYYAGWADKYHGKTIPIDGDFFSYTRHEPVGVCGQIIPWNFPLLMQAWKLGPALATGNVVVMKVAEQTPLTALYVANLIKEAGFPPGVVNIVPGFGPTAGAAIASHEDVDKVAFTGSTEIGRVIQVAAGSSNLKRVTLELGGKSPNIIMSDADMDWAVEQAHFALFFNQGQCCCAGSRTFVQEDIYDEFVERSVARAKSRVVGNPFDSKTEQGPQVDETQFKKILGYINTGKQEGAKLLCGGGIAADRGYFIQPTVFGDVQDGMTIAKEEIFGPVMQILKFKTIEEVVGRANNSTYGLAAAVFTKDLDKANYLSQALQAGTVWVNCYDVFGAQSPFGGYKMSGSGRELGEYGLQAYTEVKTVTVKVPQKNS
Procedure: as §1, §2, §3, §4
For controls, 10 .eta.L of methanol was added to the assay medium. In a standard ALDH-I assay, the assay medium contains 0.1 M sodium pyrophosphate pH 9.5, 0.15 M KCl, 1 mM NAD^+, 1% methanol, 5 μM acetaldehyde, 5-10 nM ALDH-I and various concentrations of inhibitor. […] (Fong et al., 1989, supra). The inhibition of ALDH-I by the inhibitors was calculated as: [formula]
as §6

physchem = conditions: water
ALDH-II [3] = molecular target: T1, ALDH-II; assay: Competitive inhibition of ALDH-II with acetaldehyde as substrate; type: biochemical; set-up: A liver sample (50 g wet weight) with the usual Caucasian ALDH phenotype (both ALDH-I and ALDH-II present); from tissue; host or cells: human liver (autopsy), purified by CM-52, AMP-agarose and DEAE HPLC; conditions: acetaldehyde as substrate, competitive; read-out: Ki, ALDH-II
ALDH-I [4] = molecular target: T2, ALDH-I; assay: Inhibition kinetics of ALDH-I, initial velocity method, formaldehyde as substrate; conditions: for potency as ALDH-I inhibitor, fold less than that of daidzin / relative potency as ALDH-I inhibitor, in words: compared with daidzin
Procedure: The kinetic data were analyzed by standard graphical methods.

ALDH-II [5] = molecular target: T1, ALDH-II; assay: Inhibition kinetics of ALDH-II, initial velocity method, formaldehyde as substrate
Procedure: (§7) The inhibition kinetics were studied by the initial velocity method (Dixon and Webb, 1979, Enzymes, 3rd ed., Longman, Great Britain). […] The initial reaction rates were measured in a pH 9.5 assay medium 0.1 11 in glycine-NaOH, 0. […] The enzyme reaction rates were followed by monitoring the production of NADH at 340 nm (ε-6.22 mM^-1 cm^-1) with a Varian Cary 219 spectrophotometer thermostated at 25° C. The kinetic data were analyzed by standard graphical methods.

ALDH-I [6] = molecular target: T2, ALDH-I; assay: Reversibility of ALDH-I inhibition (preincubation, then dilution); type: biochemical; set-up: A liver sample (50 g wet weight) with the usual Caucasian ALDH phenotype (both ALDH-I and ALDH-II present); from tissue; host or cells: human liver (autopsy), purified by CM-52, AMP-agarose and DEAE HPLC
ALDH-I or ALDH-II = assay: Survey of structurally related compounds for ALDH inhibition; type: biochemical, human
Procedure: as §5, §6

golden hamsters = assay: Dose effect on free choice ethanol intake in golden hamsters, i.p.; type: in vivo, golden hamster; conditions: 10 mg/day, i.p.
Description: It is common practice in quantitative drug studies with rodents to use intraperitoneal (i.p.) administration to deliver drug doses accurately (Goodman and Gilman, 1975, The Pharmacological Basis of Therapeutics, 5th ed., Macmillan, N.Y., p. 8). In particular, this method avoids variability introduced by technical difficulties of oral administration via feeding (full versus empty stomach, etc.), variations in drug transport in the gastrointestinal tract (variations in intestinal fauna and flora, individual variations in absorption rate expected of outbred animals, etc.) and other factors. […] As a control 1 ml of sterile saline was injected i.p. daily during the baseline period (typically 7-9 days) that establishes drinking preference without the drug. Saline injection i.p. had no effect on the drinking behavior of golden hamsters. Ethanol was provided as a 20% solution. Hamsters could be used more than once (but were not used more than three times) in a cycle of baseline saline injections followed by drug injections, each cycle with the drug at a different dose.
The response to daidzin treatment was computed as:
% Response=(Vo -Vd)×100/Vo

[7] = substrate: C=O; assay: purified protein, by the assay type; conditions: pH 9.5; 25.0 °C
Procedure: as §7

[8] = 200 μM acetaldehyde, 1 mM NAD+, pH 9.5, 25° C., read-out: IC50, ALDH-II
[9] = 5 μM acetaldehyde, 1 mM NAD+, pH 9.5, 25° C., read-out: IC50, ALDH-I

IC50 (ALDH-II [1]; [8]): 20000 nM
Molecule: COc1ccc(-c2coc3cc(O[C@@H]4O[C@H](CO)[C@@H](O)[C@H](O)[C@H]4O)ccc3c2=O)cc1 [Ononin]

IC50 (ALDH-II [1]; [8]): 5000 nM
IC50 (ALDH-I [2]; [9]): 10000 nM
Molecule: O=c1cc(-c2ccccc2)oc2ccccc12 [Flavone]

solubility (physchem): 9 mM (≈ 3950 µg/mL)
Ki (ALDH-II [3]): 185 nM
Molecule: O=C(O)CCCCCCCCCCOc1ccc2c(=O)c(-c3ccc(O)cc3)coc2c1 [Daidzein 7-(ω-carboxydecyl) ether, daidzein 7-(ω-carboxydecyl)ether]

IC50 (ALDH-II [1]; [8]): 300 nM
Molecule: O=c1cc(-c2ccccc2)c2ccc(O)cc2o1 [7-Hydroxy-4-phenylcoumarin]

IC50 (ALDH-II [1]; [8]): 5000 nM
IC50 (ALDH-I [2]; [9]): 5000 nM
Molecule: COc1ccc(-c2cc(=O)c3c(O)cc(O)cc3o2)cc1 [Acacetin]

IC50 (ALDH-II [1]; [8]): 500 nM
Molecule: Cc1ccc2c(c1)OC(=O)CC2c1ccccc1 (stereo not shown) [7-Methyl-4-phenyl-3,4-dihydrocoumarin]

solubility (physchem): 26 mM (≈ 9580 µg/mL)
Ki (ALDH-II [3]): 450 nM
Molecule: O=C(O)CCCCCOc1ccc2c(=O)c(-c3ccc(O)cc3)coc2c1 [Daidzein 7-(ω-carboxypentyl) ether, daidzein 7-(ω-carboxypentyl) ether]
suppression of alcohol intake, hamster C14 (golden hamsters; trained hamster C14): 56%
suppression of alcohol intake, hamster D6 (golden hamsters; trained hamster D6): 72%

The next lines start with the molecule.

Molecule: O=c1c(-c2ccc(O)cc2)coc2cc(O[C@@H]3O[C@H](CO)[C@@H](O)[C@H](O)[C@H]3O)cc(O)c12 [Genistin]
IC50 (ALDH-II [1]): > 20000 nM
IC50 (ALDH-I [2]; [9]): 2000 nM
Ki (ALDH-I [4]): 360 nM
selectivity of ALDH inhibition (ALDH-I [4]): selectively inhibited ALDH-I
potency as ALDH-I inhibitor, fold less than that of daidzin (ALDH-I [4]): approximately 10 fold
relative potency as ALDH-I inhibitor, in words (ALDH-I [4]): nearly an order of magnitude less potent as an inhibitor than daidzin
Ki (ALDH-II [5]): > 20000 nM
reversibility of ALDH-I inhibition (ALDH-I [6]): reversible selective inhibitor of ALDH-I

Molecule: CC(C)c1ccc(-c2coc3ccccc3c2=O)cc1 [4'-Isopropylisoflavone]
IC50 (ALDH-II [1]; [8]): 1500 nM
IC50 (ALDH-I [2]; [9]): 5000 nM

Molecule: O=c1c(-c2ccccc2)c(-c2ccccc2)oc2cc(O)ccc12 [3-Phenyl-7-hydroxyflavone]
IC50 (ALDH-II [1]; [8]): 2000 nM
IC50 (ALDH-I [2]; [9]): 10000 nM

Molecule: CC1=C(c2ccccc2)C(=O)OC2CC(Cl)CCC12 (stereo not shown) [7-Chloro-4A,5,6,7,8,8A-hexahydro-4-methyl-3-phenylcoumarin]
IC50 (ALDH-II [1]; [8]): 1000 nM
IC50 (ALDH-I [2]; [9]): 1000 nM

Molecule: COc1cc(O)c2c(=O)c(-c3ccc(O)cc3)coc2c1 [Prunetin]
IC50 (ALDH-II [1]): 12000 nM
IC50 (ALDH-I [2]): 1000 nM
Ki (ALDH-I [4]): 300 nM
selectivity of ALDH inhibition (ALDH-I [4]): selectively inhibited ALDH-I
potency as ALDH-I inhibitor, fold less than that of daidzin (ALDH-I [4]): approximately 10 fold
relative potency as ALDH-I inhibitor, in words (ALDH-I [4]): nearly an order of magnitude less potent as an inhibitor than daidzin
Ki (ALDH-II [5]): 12000 nM

Molecule: NC(=O)NC1NC(=O)NC1=O (stereo not shown) [allantoin]
ALDH inhibition (ALDH-I or ALDH-II): not inhibitory

Molecule: c1ccc(-c2ccc3ccccc3n2)cc1 [2-phenylquinoline]
ALDH inhibition (ALDH-I or ALDH-II): did not inhibit

Molecule: CC(=O)Oc1ccc2c(=O)c(Cc3ccccc3)c(C)oc2c1OC(C)=O [3-Benzyl-7,8-diacetoxy-2-methylchromone]
IC50 (ALDH-II [1]; [8]): 3000 nM
IC50 (ALDH-I [2]; [9]): 10000 nM

Molecule: CN1CC(=O)NC1=O [1-methylhydantoin]
ALDH inhibition (ALDH-I or ALDH-II): not inhibitory

B1: human ALDH-I (Homo sapiens) (protein)
chain: SAAATQAVPAPNQQPEVFCNQIFINNEWHDAVSRKTFPTVNPSTGEVICQVAEGDKEDVDKAVKAARAAFQLGSPWRRMDASHRGRLLNRLADLIERDRTYLAALETLDNGKPYVISYLVDLDMVLKCLRYYAGWADKYHGKTIPIDGDFFSYTRHEPVGVCGQIIPWNFPLLMQAWKLGPALATGNVVVMKVAEQTPLTALYVANLIKEAGFPPGVVNIVPGFGPTAGAAIASHEDVDKVAFTGSTEIGRVIQVAAGSSNLKRVTLELGGKSPNIIMSDADMDWAVEQAHFALFFNQGQCCCAGSRTFVQEDIYDEFVERSVARAKSRVVGNPFDSKTEQGPQVDETQFKKILGYINTGKQEGAKLLCGGGIAADRGYFIQPTVFGDVQDGMTIAKEEIFGPVMQILKFKTIEEVVGRANNSTYGLAAAVFTKDLDKANYLSQALQAGTVWVNCYDVFGAQSPFGGYKMSGSGRELGEYGLQAYTEVKTVTVKVPQKNS
Km [7]: 0.8 mM
